Experiments:
MuSCs [1] = experiment: Young MuSC numbers after acute PGE2 treatment, hydrogel culture (hemocytometer count); assay type: cell-based, mouse; conditions: ONO-AE3-208 1 μM, PGE2 10 ng/ml, 24 hr
Description: (§1) Following isolation, we resuspended MuSCs in myogenic cell culture medium containing DMEM/F10 (50:50), 15% FBS, 2.5 ng ml^−1 fibroblast growth factor-2 (FGF-2 also known as bFGF) and 1% penicillin-streptomycin. We seeded MuSC suspensions at a density of 500 cells per cm^2 surface area. We maintained cell cultures at 37° C. in 5% CO2 and changed medium daily. […]
(§2) To assay proliferation, we used three different assays (hemocytometer, VisionBlue, and EdU). […] For hemocytometer cell number count, we collected cells at indicated timepoints by incubation with 0.5% trypsin in PBS for 5 min at 37° C. and quantified them using a hemocytometer at least 3 times. Additionally, we used the VisionBlue Quick Cell Viability Fluorometric Assay Kit (BioVision, catalog #K303) as a readout for cell growth in culture. Briefly, we incubated MuSCs with 10% VisionBlue in culture medium for 3 h, and measured fluorescence intensity on a fluorescence plate reader (Infinite M1000 PRO, Tecan) at Ex=530-570 nm, Em=590-620 nm. […] We quantified EdU positive cells using the MetaMorph Image Analysis software (Molecular Devices). Data analyses were blinded, where researchers performing cell scoring were unaware of the treatment condition given to sample groups analyzed.

MuSCs [2] = experiment: Quantitative RT-PCR of MuSC transcripts; assay type: cell-based, mouse; conditions: aged MuSCs, 1-day pulse
Source text: We isolated RNA from MuSCs using the RNeasy Micro Kit (Qiagen). For muscle samples, we snap froze the tissue in liquid nitrogen, homogenized the tissues using a mortar and pestle, followed by syringe and needle trituration, and then isolated RNA using Trizol (Invitrogen). We reverse-transcribed cDNA from total mRNA from each sample using the SensiFAST™ cDNA Synthesis Kit (Bioline). We subjected cDNA to RT-PCR using SYBR Green PCR Master Mix (Applied Biosystems) or TaqMan Assays (Applied Biosystems) in an ABI 7900HT Real-Time PCR System (Applied Biosystems). We cycled samples at 95° C. for 10 min and then 40 cycles at 95° C. for 15 s and 60° C. for 1 min. To quantify relative transcript levels, we used 2-ΔΔCt to compare treated and untreated samples and expressed the results relative to Gapdh. For SYBR Green qRT-PCR, we used the following primer sequences: Gapdh. forward 5′-[…]-3′ (SEQ ID NO: 1), reverse 5′-CCCTTTTGGCTCCACCCT-3′ (SEQ ID NO: 2); Hpgd, forward 5′-[…]-3′ (SEQ ID NO: 3), reverse 5′-[…]-3′ (SEQ ID NO: 4); Ptges, forward 5′-GCTGTCATCACAGGCCAGA-3′ (SEQ ID NO: 5), reverse 5′-[…]-3′ (SEQ ID NO: 6); Ptges2, forward 5′-[…]-3′ (SEQ ID NO: 7), reverse 5′-[…]-3′ (SEQ ID NO: 8); Ptger1, forward 5′ GTGGTGTCGTGCATCTGCT-3′ (SEQ ID NO: 9), reverse, 5′ […]-3′ (SEQ ID NO: 10), and Ptger2, forward 5′-[…]-3′ (SEQ ID NO: 11), reverse 5′-[…]-3′ (SEQ ID NO: 12). TaqMan Assays (Applied Biosystems) were used to quantify Pax7. Myogenin. Slco2a1 (PGT), Ptger3 and Ptger4 in samples according to the manufacturer instructions with the TaqMan Universal PCR Master Mix reagent kit (Applied Biosystems). Transcript levels were expressed relative to Gapdh levels. For SYBR Green qPCR, Gapdh qPCR was used to normalize input cDNA samples. For Taqman qPCR, multiplex qPCR enabled target signals (FAM) to be normalized individually by their internal Gapdh signals (VIC).

aged MuSCs = experiment: Aged MuSC numbers after acute 24 hr treatment, hydrogel culture; assay type: cell-based, mouse; conditions: 1-day pulse; PGE2 10 ng/ml or SW033291 1 μM; assayed day 7
Description: as §1, §2

[3] = system: hematopoietic, liver, and colon tissues; conditions: delivery of 15-PGDH inhibitor; cited from earlier work
MuSCs [4] = experiment: MuSC transplantation into injured TA muscle, engraftment by bioluminescence imaging; assay type: in vivo, mouse
[5] = system: tibialis anterior (TA) muscle; experiment: Intramuscular dmPGE2 after cardiotoxin injury of TA, histology (PAX7, myofiber CSA); assay type: in vivo, mouse
Description: We used an injury model entailing intramuscular injection of 10 μl of notexin (10 μg ml^−1; Latoxan) or cardiotoxin (10 μM; Latoxan) into the TA muscle. For cryoinjury, an incision was made in the skin overlying the TA muscle and a copper probe, chilled in liquid nitrogen, was applied to the TA muscle for three 10 s intervals, allowing the muscle to thaw between each application of the cryoprobe. When indicated, 48 hr after injury either 16,16-Dimethyl Prostaglandin E2 (dmPGE2) (13 nmol, Tocris, catalog #4027) or vehicle control (PBS) was injected into the TA muscle. The contralateral TA was used as an internal control. We collected tissues 14 days post-injury for analysis.
We collected and prepared recipient TA muscle tissues for histology as previously described^5,6. We incubated transverse sections with anti-LAMININ (Millipore, clone A5, catalog #05-206, 1:200), and anti-PAX7 (Santa Cruz Biotechnology, catalog #sc-81648, 1:50) primary antibodies and then with AlexaFluor secondary Antibodies (Jackson ImmunoResearch Laboratories, 1:200). We counterstained nuclei with DAPI (Invitrogen). We acquired images with an AxioPlan2 epifluorescent microscope (Carl Zeiss Microimaging) with Plan NeoFluar 10×/0.30NA or 20×/0.75NA objectives (Carl Zeiss) and an ORCA-ER digital camera (Hamamatsu Photonics) controlled by the SlideBook (3i) software. The images were cropped using Adobe Photoshop with consistent contrast adjustments across all images from the same experiment. The image composites were generated using Adobe Illustrator. We analyzed the number of PAX7 positive cells using the MetaMorph Image Analysis software (Molecular Devices), and the fiber area using the Baxter Algorithms for Myofiber Analysis that identified the fibers and segmented the fibers in the image to analyze the area of each fiber. For PAX7 quantification we examined serial sections spanning a depth of at least 2 mm of the TA. For fiber area at least 10 fields of LAMININ-stained myofiber cross-sections encompassing over 400 myofibers were captured for each mouse as above. Data analyses were blinded. The researchers performing the imaging acquisition and scoring were unaware of treatment condition given to sample groups analyzed.

endogenous MuSCs = experiment: Endogenous MuSCs by Pax7-luciferase BLI after cardiotoxin injury; assay type: in vivo, mouse
Description: We performed bioluminescence imaging (BLI) using a Xenogen-100 system, as previously described^1,5,6. Briefly, we anesthetized mice using isofluorane inhalation and administered 120 μL D-luciferin (0.1 mmol kg^−1, reconstituted in PBS; Caliper LifeSciences) by intraperitoneal injection. We acquired BLI using a 60 s exposure at F-stop=1.0 at 5 minutes after luciferin injection. Digital images were recorded and analyzed using Living Image software (Caliper LifeSciences). We analyzed images with a consistent region-of-interest (ROI) placed over each hindlimb to calculate a bioluminescence signal. We calculated a bioluminescence signal in radiance (p s^−1 cm^−2 sr^−1) value of 10^4 to define an engraftment threshold. This radiance threshold of 10^4 is approximately equivalent to the total flux threshold in p/s reported previously. This BLI threshold corresponds to the histological detection of one or more GFP+ myofibers^1,5,6. We performed BLI imaging every week after transplantation.
For Pax7^CreERT2; Rosa26-LSL-Luc mice experiments, we treated mice with five consecutive daily intraperitoneal injections of tamoxifen to activate luciferase expression under the control of the Pax7 promoter. A week after the last tamoxifen injection, mice were subjected to intramuscular injection of 10 μl of cardiotoxin (10 μM; Latoxan), which we designated as day 0 of the assay. […]

[6] = system: gastrocnemius (GA) muscle; experiment: In vivo muscle force after downhill treadmill run, aged mice (Example 1); design: species or system mouse; conditions: dmPGE2 daily 5 days in week 1, force at week 5
Description: Aged mice (18 mo.) were subjected to downhill treadmill run for 2 consecutive weeks. During week 1, mice ran daily for 5 days and rested on days 6 and 7. Two hours after each treadmill run during week 1, each (lateral and medial) gastrocnemius (GA) muscle from both legs of each mouse was injected with a dose of either PBS (vehicle control) or 13 nM dmPGE2 (experimental group). During week 2, mice were subjected to 5 days treadmill run only. The treadmill run was performed using the Exer3/6 (Columbus Instruments). Mice ran for 10 minutes on the treadmill at 20 degrees downhill, starting at a speed of 7 meters/min. After 3 min, the speed was increased by 1 meter/min to a final speed of 14 meter/min. […] Force measurements were on the GA muscles at week 5 based on a protocol published previously^5. […] Data were collected with a PCI-6251 acquisition card (National Instruments) and analyzed in Matlab. We calculated specific force values by normalizing the force measurements by the muscle physiological cross-sectional areas (PCSAs), which were similar between the control and the experimental PGE2 treated group (Table 2). PCSA (measured in mm^2) was calculated according to the following equation^12: PCSA (mm^2)=[mass (g)×Cos θ]÷[ρ(g/mm^3)×fiber length (mm)], where θ is pennation angle of the fiber and ρ is muscle density (0.001056 g/mm^3). […]

Tibialis anterior (TA) = experiment: Muscle twitch force after injury and indomethacin injection; assay type: in vivo, mouse; conditions: day 14 post-injury, indomethacin into cardiotoxin-injured muscles

CC(C(=O)Nc1cc(C#N)ccc1CCCC(=O)O)c1ccc(F)c2ccccc12 (stereo not shown) [ONO-AE3-208]
proliferation induced by PGE2 in presence of EP4 antagonist (MuSCs [1]): blunted

CCCC[S+]([O-])c1sc2nc(-c3cccs3)cc(-c3ccccc3)c2c1N (stereo not shown) [SW033291]
Pax7 expression in aged MuSCs (MuSCs [2]): maintenance
proliferation of aged MuSCs (aged MuSCs): increase
regeneration of hematopoietic, liver, and colon tissues [3]: enhance regeneration

CCCCC(C)(C)[C@H](O)/C=C/[C@H]1[C@H](O)CC(=O)[C@@H]1C/C=C\CCCC(=O)O [dmPGE2, 16,16-dimethyl prostaglandin E2]
engraftment of aged MuSCs relative to controls (MuSCs [4]; aged MuSCs (250 cells) coinjected with dmPGE2): significantly enhanced
engraftment of young MuSCs relative to controls (MuSCs [4]; freshly sorted young MuSCs (250 cells) coinjected with 13 nmol dmPGE2): significantly enhanced
myofiber sizes ([5]; aged mice, fourteen days post-injury): increase
increase in the number of endogenous MuSCs ([5]; aged mice, fourteen days post-injury, single dmPGE2 injection): 24±2%
distribution of myofibers (cross-sectional area) ([5]; young mice, day 14 post injury): shifted toward larger sizes
increase in endogenous PAX7-expressing MuSCs ([5]; young mice, fourteen days post cardiotoxin injury, single dmPGE2 bolus): 60+15%
effect on endogenous MuSCs in the absence of injury ([5]; young mice, no injury): no effect
endogenous MuSCs assayed by Pax7-luciferase BLI (endogenous MuSCs; dmPGE2 3 days after cardiotoxin injury): Increase
specific tetanic force [6]: significantly increased
specific twitch force [6]: significantly increased

COc1ccc2c(c1)c(CC(=O)O)c(C)n2C(=O)c1ccc(Cl)cc1 [indomethacin]
luciferase activity (muscle stem cell activation) (endogenous MuSCs; indomethacin injected three days post-cardiotoxin injury): significant decrease
Twitch force compared to control group (Tibialis anterior (TA)): significant loss

— US11969433B2, “Compositions and methods for muscle regeneration using prostaglandin E2” (The Board of Trustees of the Leland Stanford Junior …, priority 2016, dated 2024)
